Laboratory results: patent US12338243B2, “P2X7 modulators” (JANSSEN PHARMACEUTICA NV, priority 2014, dated 2025)
pIC50, pKi: −log10 of the molar value. Where two headings read alike, the source gives them in different places.

How the values were obtained:
rat P2X7 [1] = target: T1, rat P2X7 (Rattus norvegicus, UniProt Q64663); experiment: Ca2+ flux (FLIPR) in 1321N1 cells expressing recombinant rat P2X7 channel; details: 250 μM BzATP; for IC50: FLIPR (rat) IC50 (μM); for pIC50: read-out: FLIPR (rat) IC50
T1 sequence (Q64663 1-595): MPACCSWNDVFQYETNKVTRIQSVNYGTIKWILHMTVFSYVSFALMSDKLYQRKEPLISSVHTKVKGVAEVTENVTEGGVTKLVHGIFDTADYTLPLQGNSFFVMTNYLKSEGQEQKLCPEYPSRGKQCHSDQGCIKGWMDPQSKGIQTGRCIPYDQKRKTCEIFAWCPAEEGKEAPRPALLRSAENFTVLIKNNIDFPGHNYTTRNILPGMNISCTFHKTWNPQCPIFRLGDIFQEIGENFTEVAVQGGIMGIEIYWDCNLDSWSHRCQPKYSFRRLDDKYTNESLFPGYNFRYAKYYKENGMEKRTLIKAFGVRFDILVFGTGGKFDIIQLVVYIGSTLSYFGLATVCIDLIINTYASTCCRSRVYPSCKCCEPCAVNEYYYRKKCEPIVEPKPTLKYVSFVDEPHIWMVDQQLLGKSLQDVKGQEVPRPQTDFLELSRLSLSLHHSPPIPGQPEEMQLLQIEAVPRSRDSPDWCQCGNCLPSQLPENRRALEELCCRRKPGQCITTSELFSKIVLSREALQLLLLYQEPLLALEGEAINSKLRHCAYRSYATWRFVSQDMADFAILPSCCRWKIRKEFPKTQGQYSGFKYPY
Method: (§1) P2X7 Antagonism in Recombinant Human P2X7 Cells or Recombinant Rat P2X7 Cells: (a) Ca^2+ Flux and (b) Radioligand Binding
(a) Ca^2+ flux: 1321N1 cells expressing the recombinant human or rat P2X7 channel was cultured in HyQ DME/(HyClone/Dulbecco's Modified Eagle Medium) high glucose supplemented with 10% Fetal Bovine Serum (FBS) and appropriate selection marker. Cells were seeded at a density of 25000 cells/well (96-well clear bottom black walled plates) in 100 μl volume/well. On the day of the experiment, cell plates were washed with assay buffer, containing (in mM): 130 NaCl, 2 KCl, 1 CaCl2), 1 MgCl2, 10 HEPES, 5 glucose; pH 7.40 and 300 mOs. After the wash, cells were loaded with the Calcium-4 dye (Molecular Device) and incubated in the dark for 60 minutes. Test compounds were prepared at 250× the test concentration in neat DMSO. Intermediate 96-well compound plates were prepared by transferring 1.2 μL of the compound into 300 μL of assay buffer. A further 3× dilution occurred when transferring 50 μL/well of the compound plate to 100 μL/well in the cell plate. Cells were incubated with test compounds and dye for 30 minutes. […] The fluorescence change was measured 180 seconds after adding the agonist.

rat P2X7 [2] = target: T1, rat P2X7; experiment: Radioligand binding, rat P2X7-1321N1 cell membranes, tritiated A-804598
From the text: as §1

P2X7 [3] = target: T2, P2X7 (Homo sapiens, UniProt Q99572); experiment: Ca2+ flux (FLIPR) in 1321N1 cells expressing recombinant human P2X7 channel; format: cell-based; set-up: expressed in transfected cells; host or cells: 1321N1 cells; details: 250 μM BzATP
T2 sequence (Q99572 1-595): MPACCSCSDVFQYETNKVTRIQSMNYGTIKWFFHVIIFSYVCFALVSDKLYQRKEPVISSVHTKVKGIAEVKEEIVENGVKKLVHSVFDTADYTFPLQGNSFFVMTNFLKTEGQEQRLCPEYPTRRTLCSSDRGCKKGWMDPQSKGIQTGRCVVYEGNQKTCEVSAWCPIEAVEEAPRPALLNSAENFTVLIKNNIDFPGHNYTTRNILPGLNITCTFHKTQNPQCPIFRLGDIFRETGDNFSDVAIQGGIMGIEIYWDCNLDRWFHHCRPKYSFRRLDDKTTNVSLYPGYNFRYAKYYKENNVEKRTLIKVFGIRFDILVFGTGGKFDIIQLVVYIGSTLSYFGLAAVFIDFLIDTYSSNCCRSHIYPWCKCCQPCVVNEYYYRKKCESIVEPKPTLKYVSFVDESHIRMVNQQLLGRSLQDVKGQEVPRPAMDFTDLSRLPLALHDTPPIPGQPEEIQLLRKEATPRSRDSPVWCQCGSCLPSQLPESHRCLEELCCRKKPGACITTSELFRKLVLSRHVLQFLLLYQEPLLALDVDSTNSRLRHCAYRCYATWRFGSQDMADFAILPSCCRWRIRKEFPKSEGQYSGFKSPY
How it was run: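 1321N1 cells expressing recombinant human P2X7, loaded 60 min with Calcium-4 dye in HEPES buffer pH 7.40 (1 mM CaCl2, 1 mM MgCl2), preincubated 30 min with compounds. Fluorescence change recorded 180 seconds after agonist addition.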

P2X7 [4] = target: T2, P2X7; experiment: Radioligand binding, human P2X7-1321N1 cell membranes, tritiated A-804598
From the text: as §1

SMILES	IC50 (rat P2X7 [1])	pKi (rat P2X7 [2])	pIC50 (P2X7 [3])	pKi (P2X7 [4])	pIC50 (rat P2X7 [1])
O=C(c1cccc(C(F)(F)F)c1Cl)N1CCn2c(nnc2C(F)(F)F)C1c1ccccc1 (racemic) [Example 75, (±)-(2-chloro-3-(trifluoromethyl)phenyl)(8-phenyl-3-(trifluoromethyl)-5,6-dihydro-[1,2,4]triazolo[4,3-a]pyrazin-7(8H)-yl)methanone]	0.542 µM	7.60	7.28	7.54	
C[C@H]1c2nnc(-c3ccccn3)n2CCN1C(=O)c1cccc(Cl)c1Cl (single isomer, unassigned) [Example 3]	> 10 µM	5.75			
C[C@H]1Cn2c(nnc2-c2ccccc2F)CN1C(=O)c1cccc(Cl)c1Cl [Example 38, (S)-(2,3-dichlorophenyl)(3-(2-fluorophenyl)-6-methyl-5,6-dihydro-[1,2,4]triazolo[4,3-a]pyrazin-7(8H)-yl)methanone]	7.67 µM	7.25	5.00		
C[C@H]1Cn2c(nnc2-c2cccc(F)c2)CN1C(=O)c1cccc(C(F)(F)F)c1Cl [Example 42, (S)-(2-chloro-3-(trifluoromethyl)phenyl)(3-(3-fluorophenyl)-6-methyl-5,6-dihydro-[1,2,4]triazolo[4,3-a]pyrazin-7(8H)-yl)methanone]	9.23 µM	7.73	5.67		
C[C@H]1Cn2c(nnc2-c2ccc(F)cn2)CN1C(=O)c1cccc(C(F)(F)F)c1Cl [Example 70, (S)-(2-chloro-3-(trifluoromethyl)phenyl)(3-(5-fluoropyridin-2-yl)-6-methyl-5,6-dihydro-[1,2,4]triazolo[4,3-a]pyrazin-7(8H)-yl)methanone]	0.0077 µM	8.40	8.16	7.90	
CCc1nnc2n1CCN(C(=O)c1cccc(C(F)(F)F)c1Cl)[C@@H]2c1ccccc1 [Example 86, (R)-(2-chloro-3-(trifluoromethyl)phenyl)(3-ethyl-8-phenyl-5,6-dihydro-[1,2,4]triazolo[4,3-a]pyrazin-7(8H)-yl)methanone]		8.00	8.64	7.90	7.23
CC(C)c1nnc2n1CCN(C(=O)c1cccc(C(F)(F)F)c1Cl)[C@@H]2c1ccccc1 [Example 88, (R)-(2-chloro-3-(trifluoromethyl)phenyl)(3-isopropyl-8-phenyl-5,6-dihydro-[1,2,4]triazolo[4,3-a]pyrazin-7(8H)-yl)methanone]	0.166 µM	7.60	7.99	7.70	
O=C(c1cccc(C(F)(F)F)c1Cl)N1CCn2c(C3CCC3)nnc2[C@H]1c1ccccc1 [Example 93, (R)-(2-chloro-3-(trifluoromethyl)phenyl)(3-cyclobutyl-8-phenyl-5,6-dihydro-[1,2,4]triazolo[4,3-a]pyrazin-7(8H)-yl)methanone]	0.0178 µM	8.20	8.09	7.80	
O=C(c1cccc(C(F)(F)F)c1Cl)N1CCn2c(nnc2C(F)(F)F)[C@H]1c1ccccc1 [Example 97, (R)-(2-chloro-3-(trifluoromethyl)phenyl)(8-phenyl-3-(trifluoromethyl)-5,6-dihydro-[1,2,4]triazolo[4,3-a]pyrazin-7(8H)-yl)methanone]	0.0428 µM	8.33	8.11	7.90	
O=C(c1cccc(Cl)c1Cl)N1CCn2c(nnc2C(F)(F)F)[C@H]1c1ccccc1 [Example 102, (R)-(2,3-dichlorophenyl)(8-phenyl-3-(trifluoromethyl)-5,6-dihydro-[1,2,4]triazolo[4,3-a]pyrazin-7(8H)-yl)methanone]	0.488 µM	7.53	7.98	8.00	
O=C(c1ccc(Cl)cc1Cl)N1CCn2c(nnc2C(F)(F)F)[C@H]1c1ccccc1 [Example 120, (R)-(2,4-dichlorophenyl)(8-phenyl-3-(trifluoromethyl)-5,6-dihydro-[1,2,4]triazolo[4,3-a]pyrazin-7(8H)-yl)methanone]	> 10 µM		6.32	7.30	
O=C(c1ccc(F)c(Cl)c1Cl)N1CCn2c(nnc2C(F)(F)F)[C@H]1c1ccccc1 [Example 124, (R)-(2,3-dichloro-4-fluorophenyl)(8-phenyl-3-(trifluoromethyl)-5,6-dihydro-[1,2,4]triazolo[4,3-a]pyrazin-7(8H)-yl)methanone]	0.288 µM		7.97	8.10	

Now from value to compound:

IC50 (rat P2X7 [1])	pKi (rat P2X7 [2])	pIC50 (P2X7 [3])	pKi (P2X7 [4])	pIC50 (rat P2X7 [1])	SMILES
0.815 µM	8.03				C[C@@H]1c2nnc(-c3ccccn3)n2CCN1C(=O)c1cccc(Cl)c1Cl (single isomer, unassigned) [Example 2]
> 10 µM	6.87	5.01			C[C@H]1Cn2c(nnc2-c2cccc(F)c2)CN1C(=O)c1ccc(F)c(Cl)c1Cl [Example 43, (S)-(2,3-dichloro-4-fluorophenyl)(3-(3-fluorophenyl)-6-methyl-5,6-dihydro-[1,2,4]triazolo[4,3-a]pyrazin-7(8H)-yl)methanone]
0.0269 µM	8.70	8.57	8.10		Cc1nnc2n1CCN(C(=O)c1cccc(C(F)(F)F)c1Cl)[C@H]2c1ccccc1 [Example 66, (S)-(2-chloro-3-(trifluoromethyl)phenyl)(3-methyl-8-phenyl-5,6-dihydro-[1,2,4]triazolo[4,3-a]pyrazin-7(8H)-yl)methanone]
> 10 µM	6.75	5.07			COc1ccc(-c2nnc3n2C[C@H](C)N(C(=O)c2cccc(Cl)c2Cl)C3)nc1 [Example 72, (S)-(2,3-dichlorophenyl)(3-(5-methoxypyridin-2-yl)-6-methyl-5,6-dihydro-[1,2,4]triazolo[4,3-a]pyrazin-7(8H)-yl)methanone]
0.0168 µM	8.30	8.17	8.00		O=C(c1cccc(C(F)(F)F)c1Cl)N1CCn2c(C3CC3)nnc2[C@@H]1c1ccccc1 [Example 76, (S)-(2-chloro-3-(trifluoromethyl)phenyl)(3-cyclopropyl-8-phenyl-5,6-dihydro-[1,2,4]triazolo[4,3-a]pyrazin-7(8H)-yl)methanone]
	8.05	7.95	7.30	7.57	CC(C)(C)c1nnc2n1CCN(C(=O)c1cccc(C(F)(F)F)c1Cl)[C@@H]2c1ccccc1 [Example 81, (R)-(3-(tert-butyl)-8-phenyl-5,6-dihydro-[1,2,4]triazolo[4,3-a]pyrazin-7(8H)-yl)(2-chloro-3-(trifluoromethyl)phenyl)methanone]
7.03 µM		7.19	7.70		Cc1c(C(=O)N2CCn3c(C)nnc3[C@@H]2c2ccc(F)cc2)cccc1C(F)(F)F [Example 117, (S)-(8-(4-fluorophenyl)-3-methyl-5,6-dihydro-[1,2,4]triazolo[4,3-a]pyrazin-7(8H)-yl)(2-methyl-3-(trifluoromethyl)phenyl)methanone]
0.262 µM		8.01	8.00		Cc1c(C(=O)N2CCn3c(nnc3C(F)(F)F)[C@H]2c2ccccc2)cccc1C(F)(F)F [Example 122, (R)-(2-methyl-3-(trifluoromethyl)phenyl)(8-phenyl-3-(trifluoromethyl)-5,6-dihydro-[1,2,4]triazolo[4,3-a]pyrazin-7(8H)-yl)methanone]
0.291 µM		7.16	7.30		O=C(c1cccc(C(F)(F)F)c1F)N1CCn2c(nnc2C(F)(F)F)[C@H]1c1ccccc1 [Example 128, (R)-(2-fluoro-3-(trifluoromethyl)phenyl)(8-phenyl-3-(trifluoromethyl)-5,6-dihydro-[1,2,4]triazolo[4,3-a]pyrazin-7(8H)-yl)methanone]
